This is an account of results in patent publication US12082584B2, “BOC-butenolide, an antifouling compound that has potent ability to inhibit the settlement of marine invertebrate larvae” (The Hong Kong University of Science and Technology, priority 2021, dated 2024).

The nature of series [1]: Stability of BOC-butenolide. The series is classed as physicochemical. As to conditions: compared to butenolide. The protocol: The stability of BOC-butenolide was measured by the concentration changes of BOC-butenolide in ASW throughout 3 months. The starting nominal concentration of BOC-butenolide was 200 ppm. At every time point, 5 mL of the solution was drawn and mixed with 10 mL dichloromethane (DCM). The DCM fraction with the analyte was dried under nitrogen gas, redissolved reconcentrated in 1 mL of methanol and subjected to above HPLC analysis.

For the next series, the system named is Hydroides elegans. The experiment in a line: Anti-larval settlement bioassay of H. elegans larvae (settlement and toxic effects). The series is classed as in vivo. On the procedure:
Adult H. elegans colonies were collected from a fish farm at Yung Shue O, Hong Kong (22°24′N, 114°21′E) from March to April 2019. The adults were kept in a water tank with running seawater at the Coastal Marine Laboratory (the Hong Kong University of Science and Technology) for no more than 3 days before experimental use. The larvae were collected according to the methods described by Qian and Pechenik (1998). The tube of the adults was gently cracked with forceps to release the gametes. Oocytes were then mixed with the sperm and transferred to a new container with 500 mL FSW for fertilization. Larvae were reared on microalga Isochrysis galbana (Tahitian strain) after hatching. The seawater culture medium was replaced with fresh FSW and algae every day, and the trochophore-stage larvae reached the competent stage after 5 d of incubation at around 25° C.
The test compounds were dissolved with a small amount of DMSO. The test compounds were used at six different concentrations with a 2-fold serial dilution from 100 ppm to 3.125 ppm. The same amount of DMSO was used as the negative control for all testing concentrations. Approximately 10±2 individuals of H. elegans larvae were put into each well of a 24-well polystyrene culture plate that contained 2 mL of FSW with different concentrations of test solution. Approximately 10^−4 molarity of 3-isobutyl-1-methylxanthine was added into each well as an inducer to induce the settlement of H. elegans larvae (Xu et al., 2010). The plates were then incubated at 25° C. in darkness. After 24 h, the number of settled and swimming larvae were counted using Leica MZ6 microscope, and possible toxic effects were also noted.

A further series relates to fouling organisms. The experiment in a line: Field test of coated PVC panels immersed in seawater. The series is classed as in vivo. As to conditions: PCL-PU coating. The protocol: (§1) The polymer/antifoulant coatings in subject invention were prepared using the solution casting method described by Ding et al. 2018. The coating was prepared by dissolving poly(ε-caprolactone) based polyurethane (PCL-PU) and BOC-butenolide, in different proportions (i.e. 95 wt % polymer and 5 wt % antifoulant for 5% antifoulant coating), in xylene with vigorous stirring until all solids have dissolved to form a uniform solution. The solution was applied onto the surface of the panels, either epoxy panel (25 mm×75 mm) for release rate determination or PVC panels (53 mm×125 mm) for field test, and the panels were then placed under room temperature for all solvent to evaporate and form a continuous coating.
The field tests were conducted at a fish farm in Yung Shue O, Hong Kong (114°21′E, 22°24′N) from January to March 2018. PVC panels (53 mm×125 mm) covered with coatings were immersed in seawater at a depth of 1 m from surface. The panels were retrieved once every month to be washed gently with seawater to remove dirt and photographed before being placed back in the sea. The antifouling potential of different panels was compared to determine the efficiency of the coatings. […] The percentage of area covered by foulers was calculated from the ratio of total fouling area to the panel area in which the area was highlighted by threshold function in ImageJ. […]

A short description of series [2]: Antifoulant release rate from PCL-PU coatings in artificial seawater (HPLC). The series is classed as physicochemical. On the procedure: as §1
The release rate of BOC-butenolide was determined by HPLC for quantification. The polymer/antifoulant coatings were prepared on an epoxy panel (25 mm×75 mm). The coated panels were then put into ASW. At certain time points (day 1, 8, 15, 22, 29, 50, 71, 92 after immersion onto ASW), the panels were transferred to individual containers with 100 mL of fresh ASW. […]

The test system of another series is Balanus amphitrite. The experiment in a line: Anti-larval settlement bioassay of barnacle cyprids (settlement and toxic effects). The class given is in vivo. As to conditions: for settlement rate: cyprids. On the procedure: Adult A. amphitrite colonies were collected from Tso Wo Hang Pier (22°23′32.1″N 114°17′18.7″E), Hong Kong, from April to June 2018. The adults were kept in a water tank with running seawater at the Coastal Marine Laboratory (the Hong Kong University of Science and Technology) for no more than a week before experimental use. Adults were induced under light sources for 1 h to hatch and the larvae were obtained using the method described previously by Harder et al. (2001), which is hereby incorporated by reference in its entirety. The nauplii larvae newly released from the adults were reared on diatom Chaetoceros gracilis Schütt. The seawater culture medium was replaced with fresh FSW and algae every day, and the nauplii reached the competent stage, known as cyprid, after 4 d of incubation at around 28° C.
The test compounds were dissolved with a small amount of DMSO. The test compounds were used in six concentrations from 100 ppm to 3.125 ppm with 2-fold serial dilution. The same amount of DMSO was used as the negative control for all testing concentrations. Approximately 20±2 individual A. amphitrite cyprids were placed into each well of the 24-well polystyrene culture plate containing 2 mL of FSW and were subjected to different treatments. For all treatments and controls, three replicates were performed. The plates were then incubated at 25° C. in darkness. After 48 h, the number of settled and swimming larvae were counted using Leica MZ6 microscope, and possible toxic effects were also noted.

Take `CC(C)(C)OC(=O)NCCCCCC1C=CC(=O)O1` (stereo not shown) [BOC-butenolide, Tert-butyl (5-(5-oxo-2,5-dihydrofuran-2yl)pentyl)carbamate]: the stability entry in series [1] is reported as “increased”. For the same compound, the settlement rate result with Hydroides elegans (3.125 ppm, 24 h) is “up to 80%”; in the series on Hydroides elegans (25 ppm, 24 h, significant difference with control), “around 20%”; with Balanus amphitrite (3.125 ppm, 48 h), “around 70%”; with Balanus amphitrite (25 ppm, 48 h), “around 3%”. Also, the “toxicity (larval death rate)” value in the series with Hydroides elegans (25 ppm and below) is “did not show any toxicity”; with Balanus amphitrite (25 ppm and below), “did not show any toxicity”. The larval settlement entry in the series with Hydroides elegans (50 and 100 ppm, 24 h) is recorded as “no larval settlement”. Moreover, the death result in the series with Hydroides elegans (50 ppm) is on record as “around 10%”. Moreover, the “AF ability to resist the attachment of the fouling organisms” value in the series on fouling organisms is given as “relatively good AF ability”. This compound came in with an initial release rate in series [2] (10 wt % samples in PCL-PU coating) of 150 μg cm^−2 day^−1. Also, the “time the coating can still release BOC-butenolide” value in series [2] (PCL-PU coating) was “at least 2 months”. For the same compound, the “attachment of barnacle cyprids” value in the series with Balanus amphitrite (50 to 100 ppm, 48 h) was “inhibits the attachment”.
